Test results published in patent US20140296266A1, “THERAPEUTIC COMPOUNDS” (Gilead Sciences, Inc., priority 2013, published 2014).

Legend:
HIV-IIIb = assay: Test A: Antiviral Assay in MT4 Cells; type: cell-based, HIV-1; details: MT-4 cells mixed with HIV-IIIb (m.o.i. 0.003), 5 days, CellTiter-Glo, calculated from the dose response curve; for inhibition at 2 µM: Human immunodeficiency virus 1, IIIB, MT4, 120 h, read-out: % inhibition at 2 μM (percent inhibition of virus-induced cell killing), 2 μM drug concentration
Experimental: (§1) For the antiviral assay, 40 μL of 1× test concentration of 3-fold serially diluted compound in culture medium with 10% FBS was added to each well of a 384-well plate (10 concentrations) in quadruplicate. MT-4 cells were next mixed with HIV-IIIb at an m.o.i of 0.003 for 1 hour, after which time 35 μL of virus/cell mixture (2000 cells) was immediately added to each well containing 40 μL of diluted compound. The plates were then incubated at 37° C. for 5 days. After 5 days of incubation, 25 μl of 2× concentrated CellTiter-Glo™ Reagent (catalog #G7571, Promega Biosciences, Inc., Madison, Wis.) was added to each well containing MT-4 cells. Cell lysis was carried out by incubating at room temperature for 10 min and then chemiluminescence was read.

[1] = Test B: Cytotoxicity Assay; type: cell-based; details: human, uninfected MT-4 cells, same protocol as Test A, CellTiter-Glo
Experimental: as §1
Compound cytotoxicity and the corresponding CC50 values was determined using the same protocol as described in the antiviral assay (Test A) except that uninfected cells were used.

| SMILES | inhibition at 2 µM (HIV-IIIb) | CC50 at 5 days [1] | % inhibition at 2 μM (percent inhibition of virus-induced cell killing) (HIV-IIIb; 2 μM drug concentration) |
| --- | --- | --- | --- |
| NC(=O)c1ccc(-c2cnc3[nH]ccc3c2)c([C@H](Cc2cc(F)cc(F)c2)NC(=O)Cn2nc(C(F)F)c3c2C(F)(F)CCC3(F)F)n1 [Compound 1B, (S)-6-(1-(2-(3-(difluoromethyl)-4,4,7,7-tetrafluoro-4,5,6,7-tetrahydro-1H-indazol-1-yl)acetamido)-2-(3,5-difluorophenyl)ethyl)-5-(1H-pyrrolo[2,3-b]pyridin-5-yl)picolinamide] | 77% | 8.57 µM | – |
| CC(C)(O)C#Cc1ccc(-c2cccc3c(=O)[nH]cnc23)c([C@H](Cc2cc(F)cc(F)c2)NC(=O)Cn2nc(C(F)(F)F)c3c2C(F)(F)[C@@H]2C[C@H]32)n1 [Compound 2, 2-((3bS,4aR)-5,5-difluoro-3-(trifluoromethyl)-3b,4,4a,5-tetrahydro-1H-cyclopropa[3,4]cyclopenta[1,2-c]pyrazol-1-yl)-N—((S)-2-(3,5-difluorophenyl)-1-(6-(3-hydroxy-3-methylbut-1-yn-1-yl)-3-(4-oxo-3,4-dihydroquinazolin-8-yl)pyridin-2-yl)ethyl)acetamide] | 90% | 14.3 µM | – |
| CC(C)(O)C#Cc1ccc(-c2ccc3c(c2)C(=O)NC32CC2)c([C@H](Cc2cc(F)cc(F)c2)NC(=O)Cn2nc(C(F)(F)F)c3c2C(F)(F)[C@@H]2C[C@H]32)n1 [Compound 3D, 2-((3bS,4aR)-5,5-difluoro-3-(trifluoromethyl)-3b,4,4a,5-tetrahydro-1H-cyclopropa[3,4]cyclopenta[1,2-c]pyrazol-1-yl)-N—((S)-2-(3,5-difluorophenyl)-1-(6-(3-hydroxy-3-methylbut-1-yn-1-yl)-3-(3′-oxospiro[cyclopropane-1,1′-isoindolin]-5′-yl)pyridin-2-yl)ethyl)acetamide] | 82% | 4.15 µM | – |
| CC(C)(O)C#Cc1cnc([C@H](Cc2cc(F)cc(F)c2)NC(=O)Cn2nc(C(F)F)c3c2C(F)(F)CCC3(F)F)c(-c2ccc3c(c2)C(=O)NC3)c1 [Compound 4H, (S)-2-(3-(difluoromethyl)-4,4,7,7-tetrafluoro-4,5,6,7-tetrahydro-1H-indazol-1-yl)-N-(2-(3,5-difluorophenyl)-1-(5-(3-hydroxy-3-methylbut-1-ynyl)-3-(3-oxoisoindolin-5-yl)pyridin-2-yl)ethyl)acetamide] | 74% | 22.8 µM | – |
| NC(=O)c1cc(-c2ccc(-c3ccc(F)c(C(N)=O)c3)c([C@H](Cc3cc(F)cc(F)c3)NC(=O)Cn3nc(C(F)F)c4c3C(F)(F)CCC4(F)F)n2)ccc1F [Compound 5G, (S)-5,5′-(6-(1-(2-(3-(difluoromethyl)-4,4,7,7-tetrafluoro-4,5,6,7-tetrahydro-1H-indazol-1-yl)acetamido)-2-(3,5-difluorophenyl)ethyl)pyridine-2,5-diyl)bis(2-fluorobenzamide)] | – | > 53.2 µM | – |
| O=C(Cn1nc(C(F)F)c2c1C(F)(F)CCC2(F)F)N[C@@H](Cc1cc(F)cc(F)c1)c1nc(-c2ccc3c(c2)C(=O)NC3)ccc1-c1ccc2c(c1)C(=O)NC2 [Compound 6, (S)—N-(1-(3,6-bis(3-oxoisoindolin-5-yl)pyridin-2-yl)-2-(3,5-difluorophenyl)ethyl)-2-(3-(difluoromethyl)-4,4,7,7-tetrafluoro-4,5,6,7-tetrahydro-1H-indazol-1-yl)acetamide] | 73% | > 53.2 µM | – |
| O=C(Cn1nc(C(F)F)c2c1C(F)(F)CCC2(F)F)N[C@@H](Cc1cc(F)cc(F)c1)c1nc(-c2cnc3[nH]ccc3c2)ccc1-c1cnc2[nH]ccc2c1 [Compound 7, (S)—N-(1-(3,6-bis(1H-pyrrolo[2,3-b]pyridin-5-yl)pyridin-2-yl)-2-(3,5-difluorophenyl)ethyl)-2-(3-(difluoromethyl)-4,4,7,7-tetrafluoro-4,5,6,7-tetrahydro-1H-indazol-1-yl)acetamide] | 92% | 5.66 µM | – |
| COc1cc(-c2ccc(-c3ccc4c(c3)C(=O)NC4)c([C@H](Cc3cc(F)cc(F)c3)NC(=O)Cn3nc(C(F)F)c4c3C(F)(F)CCC4(F)F)n2)ccn1 [Compound 8C, (S)-2-(3-(difluoromethyl)-4,4,7,7-tetrafluoro-4,5,6,7-tetrahydro-1H-indazol-1-yl)-N-(2-(3,5-difluorophenyl)-1-(2′-methoxy-5-(3-oxoisoindolin-5-yl)-[2,4′-bipyridin]-6-yl)ethyl)acetamide] | 86% | 22 µM | – |
| CC(C)(O)C#Cc1ccc(-c2ccc3c(c2)C(=O)NC3)c([C@H](Cc2cc(F)cc(F)c2)NC(=O)Cn2nc(C(F)F)c3c2C(F)(F)CCC3(F)F)n1 [Compound 9B, (S)-2-(3-(difluoromethyl)-4,4,7,7-tetrafluoro-4,5,6,7-tetrahydro-1H-indazol-1-yl)-N-(2-(3,5-difluorophenyl)-1-(6-(3-hydroxy-3-methylbut-1-yn-1-yl)-3-(3-oxoisoindolin-5-yl)pyridin-2-yl)ethyl)acetamide] | 95% | 14.6 µM | – |
| O=C(Cn1nc(C(F)F)c2c1C(F)(F)CCC2(F)F)N[C@@H](Cc1cc(F)cc(F)c1)c1ncc(-c2ccc3c(c2)C(=O)NC3)cc1-c1ccc2c(c1)C(=O)NC2 [Compound 10B, (S)—N-(1-(3,5-bis(3-oxoisoindolin-5-yl)pyridin-2-yl)-2-(3,5-difluorophenyl)ethyl)-2-(3-(difluoromethyl)-4,4,7,7-tetrafluoro-4,5,6,7-tetrahydro-1H-indazol-1-yl)acetamide] | 85% | > 53.2 µM | – |
| O=C(Cn1nc(C(F)F)c2c1C(F)(F)CCC2(F)F)N[C@@H](Cc1cc(F)cc(F)c1)c1ncc(-c2cnc3[nH]ccc3c2)cc1-c1cnc2[nH]ccc2c1 [Compound 11, (S)—N-(1-(3,5-di(1H-pyrrolo[2,3-b]pyridin-5-yl)pyridin-2-yl)-2-(3,5-difluorophenyl)ethyl)-2-(3-(difluoromethyl)-4,4,7,7-tetrafluoro-4,5,6,7-tetrahydro-1H-indazol-1-yl)acetamide] | 66% | > 53.2 µM | – |
| O=C(Cn1nc(C(F)F)c2c1C(F)(F)CCC2(F)F)N[C@@H](Cc1cc(F)cc(F)c1)c1nc(-c2cc[nH]c(=O)c2)ccc1-c1ccc2c(c1)C(=O)NC2 [Compound 12, (S)-2-(3-(difluoromethyl)-4,4,7,7-tetrafluoro-4,5,6,7-tetrahydro-1H-indazol-1-yl)-N-(2-(3,5-difluorophenyl)-1-(2′-oxo-5-(3-oxoisoindolin-5-yl)-1′,2′-dihydro-[2,4′-bipyridin]-6-yl)ethyl)acetamide] | 58% | > 53.2 µM | – |
| O=C(Cn1nc(C(F)F)c2c1C(F)(F)CCC2(F)F)N[C@@H](Cc1cc(F)cc(F)c1)c1nc(-c2cc[nH]c(=O)c2)ccc1-c1cc[nH]c(=O)c1 [Compound 13, (S)-2-(3-(difluoromethyl)-4,4,7,7-tetrafluoro-4,5,6,7-tetrahydro-1H-indazol-1-yl)-N-(2-(3,5-difluorophenyl)-1-(2,2″-dioxo-1,1″,2,2″-tetrahydro-[4,2′:5′,4″-terpyridin]-6′-yl)ethyl)acetamide] | 0% | > 53.2 µM | – |
| CC(C)(O)C#Cc1ccc(-c2cccc3c2CNC3=O)c([C@H](Cc2cc(F)cc(F)c2)NC(=O)Cn2nc(C(F)(F)F)c3c2C(F)(F)[C@@H]2C[C@H]32)n1 [Compound 14E, 2-((3bS,4aR)-5,5-difluoro-3-(trifluoromethyl)-3b,4,4a,5-tetrahydro-1H-cyclopropa[3,4]cyclopenta[1,2-c]pyrazol-1-yl)-N—((S)-2-(3,5-difluorophenyl)-1-(6-(3-hydroxy-3-methylbut-1-yn-1-yl)-3-(1-oxoisoindolin-4-yl)pyridin-2-yl)ethyl)acetamide] | 89% | 6.82 µM | – |
| O=C(Cn1nc(C(F)F)c2c1C(F)(F)CCC2(F)F)N[C@@H](Cc1cc(F)cc(F)c1)c1nc(-c2c[nH]nn2)ccc1-c1cnc2[nH]ccc2c1 [Compound 16C] | – | – | 65% |
| CC(C)(O)C#Cc1ccc(-c2cccc3c(=O)[nH]c(=O)[nH]c23)c([C@H](Cc2cc(F)cc(F)c2)NC(=O)Cn2nc(C(F)(F)F)c3c2C(F)(F)[C@@H]2C[C@H]32)n1 [Compound 17, 2-((3bS,4aR)-5,5-difluoro-3-(trifluoromethyl)-3b,4,4a,5-tetrahydro-1H-cyclopropa[3,4]cyclopenta[1,2-c]pyrazol-1-yl)-N—((S)-2-(3,5-difluorophenyl)-1-(3-(2,4-dioxo-1,2,3,4-tetrahydroquinazolin-8-yl)-6-(3-hydroxy-3-methylbut-1-ynyl)pyridin-2-yl)ethyl)acetamide] | 80% | 12.6 µM | – |
| CC(C)(O)C#Cc1ccc(-c2ccc(F)c(C(N)=O)c2)c([C@H](Cc2cc(F)cc(F)c2)NC(=O)Cn2nc(C(F)(F)F)c3c2C(F)(F)[C@@H]2C[C@H]32)n1 [Compound 18, 5-(2-((S)-1-(2-((3bS,4aR)-5,5-difluoro-3-(trifluoromethyl)-3b,4,4a,5-tetrahydro-1H-cyclopropa[3,4]cyclopenta[1,2-c]pyrazol-1-yl)acetamido)-2-(3,5-difluorophenyl)ethyl)-6-(3-hydroxy-3-methylbut-1-yn-1-yl)pyridin-3-yl)-2-fluorobenzamide] | – | 6.93 µM | – |
